A word on the inhibition: it is the share of the control response that was lost under treatment.

This assay deals with ROCK2 protein (Homo sapiens, UniProt O75116). Description: Degradation inducing activity of ROCK2 protein in HUVEC cells, Western blotting (Simple Western JESS). To be noted: HUVEC, 24 h; for inhibition at 1 µM: degradation rate at 1 µM; for inhibition at 10 µM: degradation rate at 10 µM. On the set-up: endogenous in cells; host or cells: HUVEC (ATCC CRL-1730). The format is cell-based. The essentials: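 HUVEC cells treated 24 h with compound at 10 µM or 1 µM, then lysed; ROCK2 quantified by capillary Western (Simple Western JESS) using rabbit mAb D1B1, normalized to total loaded protein. Degradation rate (%) calculated relative to DMSO control set at 100%, binned A ≥75%, B 50–75%, C 25–50%, D <25%.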
ROCK2 protein, sequence (O75116 whole entry): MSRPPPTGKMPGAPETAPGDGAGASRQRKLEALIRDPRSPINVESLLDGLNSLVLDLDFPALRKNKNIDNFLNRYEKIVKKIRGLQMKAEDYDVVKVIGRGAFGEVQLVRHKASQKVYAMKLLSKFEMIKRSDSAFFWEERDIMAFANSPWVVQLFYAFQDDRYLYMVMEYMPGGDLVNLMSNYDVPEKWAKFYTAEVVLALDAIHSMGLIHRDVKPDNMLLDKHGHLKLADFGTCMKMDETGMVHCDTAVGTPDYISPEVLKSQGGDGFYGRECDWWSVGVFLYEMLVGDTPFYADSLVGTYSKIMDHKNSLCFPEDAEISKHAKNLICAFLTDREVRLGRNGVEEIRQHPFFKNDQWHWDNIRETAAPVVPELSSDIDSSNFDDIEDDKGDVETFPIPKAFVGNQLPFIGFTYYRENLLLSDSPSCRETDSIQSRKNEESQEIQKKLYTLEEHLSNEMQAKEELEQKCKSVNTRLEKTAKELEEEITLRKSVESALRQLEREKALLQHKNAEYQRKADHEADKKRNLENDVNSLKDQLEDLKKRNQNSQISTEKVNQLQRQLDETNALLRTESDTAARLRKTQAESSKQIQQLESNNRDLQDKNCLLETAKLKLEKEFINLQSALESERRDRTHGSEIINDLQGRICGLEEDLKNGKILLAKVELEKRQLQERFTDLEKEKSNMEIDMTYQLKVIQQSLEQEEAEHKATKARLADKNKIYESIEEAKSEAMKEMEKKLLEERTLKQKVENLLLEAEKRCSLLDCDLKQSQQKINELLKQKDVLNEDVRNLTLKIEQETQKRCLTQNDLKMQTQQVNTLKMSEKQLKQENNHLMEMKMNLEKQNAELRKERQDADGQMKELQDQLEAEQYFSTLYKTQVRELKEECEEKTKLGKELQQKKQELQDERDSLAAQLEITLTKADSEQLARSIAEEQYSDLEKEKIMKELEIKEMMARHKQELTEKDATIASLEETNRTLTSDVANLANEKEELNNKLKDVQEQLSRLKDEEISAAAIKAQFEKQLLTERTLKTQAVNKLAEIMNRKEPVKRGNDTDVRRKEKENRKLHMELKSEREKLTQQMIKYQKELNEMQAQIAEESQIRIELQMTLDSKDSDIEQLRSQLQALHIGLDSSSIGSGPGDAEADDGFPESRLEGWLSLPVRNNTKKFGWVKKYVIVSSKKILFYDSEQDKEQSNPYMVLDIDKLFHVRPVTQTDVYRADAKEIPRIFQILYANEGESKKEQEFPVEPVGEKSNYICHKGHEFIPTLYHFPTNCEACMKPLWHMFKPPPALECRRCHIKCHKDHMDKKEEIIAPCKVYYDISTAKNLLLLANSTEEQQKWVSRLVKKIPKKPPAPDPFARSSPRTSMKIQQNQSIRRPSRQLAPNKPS

Take `COC[C@H]1CN[C@H](C)CN1CC(=O)N1CC(C)(C)c2ncc(Cc3cccc(OCCOCCOCCN[C@H](C)c4ccc(C(=O)Nc5ccncc5)cc4)c3)cc21` [Example 44, 4-((R)-1-((2-(2-(2-(3-((1-(2-((2R,5R)-2-(Methoxymethyl)-5-methylpiperazin-1-yl)acetyl)-3,3-dimethyl-2,3-dihydro-1H-pyrrolo[3,2-b]pyridin-6-yl)methyl)phenoxy)ethoxy)ethoxy)ethyl)amino)ethyl)-N-(pyridin-4-yl)benzamide]: the inhibition at 1 µM is 50 to 75% and the inhibition at 10 µM was at least 75%.
On to `COC[C@H]1CN[C@H](C)CN1CC(=O)N1CC(C)(C)c2ncc(Cc3cccc(OCCOCCOCCOCCN[C@H](C)c4ccc(C(=O)Nc5ccncc5)cc4)c3)cc21` [Example 45, 4-((R)-14-(3-((1-(2-((2R,5R)-2-(Methoxymethyl)-5-methylpiperazin-1-yl)acetyl)-3,3-dimethyl-2,3-dihydro-1H-pyrrolo[3,2-b]pyridin-6-yl)methyl)phenoxy)-6,9,12-trioxa-3-azatetradecan-2-yl)-N-(pyridin-4-yl)benzamide], for which the inhibition at 1 µM was below 25% and the inhibition at 10 µM lay in the range of 50 to 75%.
`COC[C@H]1CN[C@H](C)CN1CC(=O)N1CC(C)(C)c2ncc(Cc3cccc(OCCOCCOCCOCCOCCN[C@H](C)c4ccc(C(=O)Nc5ccncc5)cc4)c3)cc21` [Example 46, 4-((R)-17-(3-((1-(2-((2R,5R)-2-(Methoxymethyl)-5-methylpiperazin-1-yl)acetyl)-3,3-dimethyl-2,3-dihydro-1H-pyrrolo[3,2-b]pyridin-6-yl)methyl)phenoxy)-6,9,12,15-tetraoxa-3-azaheptadecan-2-yl)-N-(pyridin-4-yl)benzamide] showed an inhibition at 1 µM of 25 to 50% and an inhibition at 10 µM of 25 to 50%.
Take `COC[C@H]1CN[C@H](C)CN1CC(=O)N1CC(C)(C)c2ncc(Cc3cccc(OCCOCCOCCOCCOCCOCCN[C@H](C)c4ccc(C(=O)Nc5ccncc5)cc4)c3)cc21` [Example 47, 4-((R)-20-(3-((1-(2-((2R,5R)-2-(Methoxymethyl)-5-methylpiperazin-1-yl)acetyl)-3,3-dimethyl-2,3-dihydro-1H-pyrrolo[3,2-b]pyridin-6-yl)methyl)phenoxy)-6,9,12,15,18-pentaoxa-3-azaicosan-2-yl)-N-(pyridin-4-yl)benzamide]: the inhibition at 1 µM lay within 50 to 75% and the inhibition at 10 µM is at least 75%.
In turn, `COC[C@H]1CN[C@H](C)CN1CC(=O)N1CC(C)(C)c2ncc(Cc3cccc(OCCOCCOCCOCCOCCOCCOCCOCCN[C@H](C)c4ccc(C(=O)Nc5ccncc5)cc4)c3)cc21` [Example 49, 4-((R)-26-(3-((1-(2-((2R,5R)-2-(Methoxymethyl)-5-methylpiperazin-1-yl)acetyl)-3,3-dimethyl-2,3-dihydro-1H-pyrrolo[3,2-b]pyridin-6-yl)methyl)phenoxy)-6,9,12,15,18,21,24-heptaoxa-3-azahexacosan-2-yl)-N-(pyridin-4-yl)benzamide] had an inhibition at 1 µM of at least 75% and an inhibition at 10 µM of 50 to 75%.
For `COC[C@H]1CN[C@H](C)CN1CC(=O)N1CC(C)(C)c2ncc(Cc3cccc(OCCOCCN[C@H](Cc4cccc(F)c4)C(=O)Nc4ccc(-c5ccncc5)cc4)c3)cc21` [Example 50, (R)-3-(3-Fluorophenyl)-2-((2-(2-(3-((1-(2-((2R,5R)-2-(methoxymethyl)-5-methylpiperazin-1-yl)acetyl)-3,3-dimethyl-2,3-dihydro-1H-pyrrolo[3,2-b]pyridin-6-yl)methyl)phenoxy)ethoxy)ethyl)amino)-N-(4-(pyridin-4-yl)phenyl)propanamide] the same measures were 25 to 50% and at least 75%.

The values are drawn from patent publication EP4578856A1, “HETEROCYCLIC COMPOUND” (Ubience Inc., priority 2022, dated 2024).
